Data published in ChEMBL document CHEMBL5649166, “RIP3 induces apoptosis independent of pronecrotic kinase activity” (Mol Cell, 2014).

Tests used:
[1] = biological target: Receptor-interacting serine/threonine-protein kinase 2 (Homo sapiens) (UniProt O43353); experiment: Inhibition of human RIPK2 using myelin basic protein as substrate at 1 uM in presence of 32P-ATP by Hotspot assay relative to control; values are per cent of control
[2] = biological target: T1, Serine/threonine-protein kinase Nek9 (Homo sapiens) (UniProt Q8TD19); experiment: Inhibition of human NEK9 using myelin basic protein as substrate at 1 uM in presence of 32P-ATP by Hotspot assay relative to control; values are per cent of control
T1 sequence (whole entry): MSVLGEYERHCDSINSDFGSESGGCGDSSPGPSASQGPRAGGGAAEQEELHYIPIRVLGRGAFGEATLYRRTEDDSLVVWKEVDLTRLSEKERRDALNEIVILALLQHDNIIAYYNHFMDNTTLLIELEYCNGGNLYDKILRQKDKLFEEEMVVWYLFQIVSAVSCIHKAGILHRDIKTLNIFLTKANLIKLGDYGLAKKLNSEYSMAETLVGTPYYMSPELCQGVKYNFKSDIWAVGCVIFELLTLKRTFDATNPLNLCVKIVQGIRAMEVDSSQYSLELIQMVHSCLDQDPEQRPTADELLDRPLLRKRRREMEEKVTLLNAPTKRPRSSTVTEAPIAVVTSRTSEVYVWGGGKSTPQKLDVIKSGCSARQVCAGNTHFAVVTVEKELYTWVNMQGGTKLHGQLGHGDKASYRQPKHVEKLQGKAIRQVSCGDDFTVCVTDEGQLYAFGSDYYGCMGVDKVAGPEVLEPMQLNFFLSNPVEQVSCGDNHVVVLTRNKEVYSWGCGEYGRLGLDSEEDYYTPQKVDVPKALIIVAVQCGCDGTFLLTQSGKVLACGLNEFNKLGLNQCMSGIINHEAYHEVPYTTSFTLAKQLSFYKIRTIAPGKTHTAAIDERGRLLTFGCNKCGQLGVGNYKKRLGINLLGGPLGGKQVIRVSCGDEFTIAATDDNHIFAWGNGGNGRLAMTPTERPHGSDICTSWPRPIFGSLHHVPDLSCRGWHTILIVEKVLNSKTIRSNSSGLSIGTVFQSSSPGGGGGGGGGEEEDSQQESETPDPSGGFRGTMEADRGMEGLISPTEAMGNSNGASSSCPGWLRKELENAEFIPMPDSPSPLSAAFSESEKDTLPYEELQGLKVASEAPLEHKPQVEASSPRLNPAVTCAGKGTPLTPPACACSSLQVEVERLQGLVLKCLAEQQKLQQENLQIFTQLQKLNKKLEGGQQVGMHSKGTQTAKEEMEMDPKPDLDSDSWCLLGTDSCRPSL

[3] = biological target: Tyrosine-protein kinase Lyn (Homo sapiens) (UniProt P07948); experiment: Inhibition of human LYN using poly[Glu:Tyr] (4:1) as substrate at 1 uM in presence of 32P-ATP by Hotspot assay relative to control; values are per cent of control
Chain of Tyrosine-protein kinase Lyn (Homo sapiens) (P07948 2-512 limits assumed): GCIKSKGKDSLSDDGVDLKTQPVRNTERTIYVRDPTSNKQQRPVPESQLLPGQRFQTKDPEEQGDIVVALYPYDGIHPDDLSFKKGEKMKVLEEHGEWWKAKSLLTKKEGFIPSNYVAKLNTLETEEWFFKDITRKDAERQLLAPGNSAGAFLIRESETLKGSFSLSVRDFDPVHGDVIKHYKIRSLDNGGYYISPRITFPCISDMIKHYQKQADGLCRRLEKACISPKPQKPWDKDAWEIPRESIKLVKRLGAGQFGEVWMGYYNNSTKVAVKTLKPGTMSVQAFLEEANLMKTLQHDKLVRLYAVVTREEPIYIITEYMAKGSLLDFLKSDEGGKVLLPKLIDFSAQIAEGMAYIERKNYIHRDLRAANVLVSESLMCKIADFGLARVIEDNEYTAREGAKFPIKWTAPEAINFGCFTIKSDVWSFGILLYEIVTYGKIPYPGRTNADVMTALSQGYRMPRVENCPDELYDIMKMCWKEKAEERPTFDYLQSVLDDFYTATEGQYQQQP

[4] = biological target: Casein kinase I isoform alpha (Homo sapiens) (UniProt P48729); experiment: Inhibition of human CK1a1 using KRRRAL[pS]VASLPGL as substrate at 1 uM in presence of 32P-ATP by Hotspot assay relative to control; values are per cent of control
Chain of Casein kinase I isoform alpha (Homo sapiens) (P48729 2-337 limits assumed): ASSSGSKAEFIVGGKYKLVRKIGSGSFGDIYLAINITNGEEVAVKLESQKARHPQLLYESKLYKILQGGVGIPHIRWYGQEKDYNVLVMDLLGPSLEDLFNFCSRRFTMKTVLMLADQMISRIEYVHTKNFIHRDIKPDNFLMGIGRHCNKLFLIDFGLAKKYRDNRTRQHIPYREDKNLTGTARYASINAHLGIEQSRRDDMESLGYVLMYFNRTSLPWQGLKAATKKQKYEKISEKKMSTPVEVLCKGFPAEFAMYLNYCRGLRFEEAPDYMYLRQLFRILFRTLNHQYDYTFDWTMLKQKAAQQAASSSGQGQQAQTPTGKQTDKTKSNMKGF

[5] = biological target: T2, Serine/threonine-protein kinase STK11 (Homo sapiens) (UniProt Q15831); experiment: Inhibition of human LKB1 using LSNLYHQGKFLQTFCGSPLYRRR as substrate at 1 uM in presence of 32P-ATP by Hotspot assay relative to control; values are per cent of control
T2 sequence (whole entry): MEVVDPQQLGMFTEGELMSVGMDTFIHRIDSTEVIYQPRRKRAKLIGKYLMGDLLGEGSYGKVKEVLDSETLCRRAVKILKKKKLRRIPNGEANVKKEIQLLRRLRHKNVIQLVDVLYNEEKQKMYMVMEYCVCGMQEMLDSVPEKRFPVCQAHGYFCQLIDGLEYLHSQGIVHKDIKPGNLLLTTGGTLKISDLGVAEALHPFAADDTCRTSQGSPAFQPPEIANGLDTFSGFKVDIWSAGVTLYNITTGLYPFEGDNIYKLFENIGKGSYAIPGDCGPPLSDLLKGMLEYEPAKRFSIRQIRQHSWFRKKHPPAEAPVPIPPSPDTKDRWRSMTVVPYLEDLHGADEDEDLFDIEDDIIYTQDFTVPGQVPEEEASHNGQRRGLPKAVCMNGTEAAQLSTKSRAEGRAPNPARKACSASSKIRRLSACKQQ

[6] = biological target: Tyrosine-protein kinase Fer (Homo sapiens) (UniProt P16591); experiment: Inhibition of human FER using poly[Glu:Tyr] (4:1) as substrate at 1 uM in presence of 32P-ATP by Hotspot assay relative to control; values are per cent of control
[7] = biological target: Cyclin-dependent kinase 4/cyclin D1 (Homo sapiens) (UniProt P11802+P24385); experiment: Inhibition of human CDK4/cyclin D1 using RB Protein as substrate at 1 uM in presence of 32P-ATP by Hotspot assay relative to control; values are per cent of control
[8] = biological target: Ribosomal protein S6 kinase alpha-2 (Homo sapiens) (UniProt Q15349); experiment: Inhibition of human RSK3 using KKLNRTLSVA as substrate at 1 uM in presence of 32P-ATP by Hotspot assay relative to control; values are per cent of control
Chain of Ribosomal protein S6 kinase alpha-2 (Homo sapiens) (Q15349 whole entry): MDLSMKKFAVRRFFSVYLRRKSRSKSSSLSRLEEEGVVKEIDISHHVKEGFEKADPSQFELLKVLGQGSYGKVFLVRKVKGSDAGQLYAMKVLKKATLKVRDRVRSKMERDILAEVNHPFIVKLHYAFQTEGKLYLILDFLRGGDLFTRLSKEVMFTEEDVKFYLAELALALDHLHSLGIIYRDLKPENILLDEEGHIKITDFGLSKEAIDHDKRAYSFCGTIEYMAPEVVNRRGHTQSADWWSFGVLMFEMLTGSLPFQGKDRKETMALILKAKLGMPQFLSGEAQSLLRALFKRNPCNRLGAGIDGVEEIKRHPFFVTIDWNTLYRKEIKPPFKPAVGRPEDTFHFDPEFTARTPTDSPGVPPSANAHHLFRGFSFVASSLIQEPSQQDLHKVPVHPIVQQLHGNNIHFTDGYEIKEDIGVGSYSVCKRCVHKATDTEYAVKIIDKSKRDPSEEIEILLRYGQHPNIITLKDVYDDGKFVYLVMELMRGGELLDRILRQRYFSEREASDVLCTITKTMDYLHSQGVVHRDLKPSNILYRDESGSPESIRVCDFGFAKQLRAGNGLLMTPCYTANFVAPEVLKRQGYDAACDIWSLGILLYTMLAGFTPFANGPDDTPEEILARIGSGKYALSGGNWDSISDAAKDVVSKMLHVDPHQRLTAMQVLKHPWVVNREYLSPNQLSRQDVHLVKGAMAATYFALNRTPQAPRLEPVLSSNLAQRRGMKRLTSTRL

[9] = biological target: Serine/threonine-protein kinase PAK 1 (Homo sapiens) (UniProt Q13153); experiment: Inhibition of human PAK1 using RRRLSFAEPG as substrate at 1 uM in presence of 32P-ATP by Hotspot assay relative to control; values are per cent of control
[10] = biological target: Mitogen-activated protein kinase kinase kinase 9 (Homo sapiens) (UniProt P80192); experiment: Inhibition of human MLK1/MAP3K9 using casein as substrate at 1 uM in presence of 32P-ATP by Hotspot assay relative to control; values are per cent of control
Chain of Mitogen-activated protein kinase kinase kinase 9 (Homo sapiens) (P80192 whole entry, looked up): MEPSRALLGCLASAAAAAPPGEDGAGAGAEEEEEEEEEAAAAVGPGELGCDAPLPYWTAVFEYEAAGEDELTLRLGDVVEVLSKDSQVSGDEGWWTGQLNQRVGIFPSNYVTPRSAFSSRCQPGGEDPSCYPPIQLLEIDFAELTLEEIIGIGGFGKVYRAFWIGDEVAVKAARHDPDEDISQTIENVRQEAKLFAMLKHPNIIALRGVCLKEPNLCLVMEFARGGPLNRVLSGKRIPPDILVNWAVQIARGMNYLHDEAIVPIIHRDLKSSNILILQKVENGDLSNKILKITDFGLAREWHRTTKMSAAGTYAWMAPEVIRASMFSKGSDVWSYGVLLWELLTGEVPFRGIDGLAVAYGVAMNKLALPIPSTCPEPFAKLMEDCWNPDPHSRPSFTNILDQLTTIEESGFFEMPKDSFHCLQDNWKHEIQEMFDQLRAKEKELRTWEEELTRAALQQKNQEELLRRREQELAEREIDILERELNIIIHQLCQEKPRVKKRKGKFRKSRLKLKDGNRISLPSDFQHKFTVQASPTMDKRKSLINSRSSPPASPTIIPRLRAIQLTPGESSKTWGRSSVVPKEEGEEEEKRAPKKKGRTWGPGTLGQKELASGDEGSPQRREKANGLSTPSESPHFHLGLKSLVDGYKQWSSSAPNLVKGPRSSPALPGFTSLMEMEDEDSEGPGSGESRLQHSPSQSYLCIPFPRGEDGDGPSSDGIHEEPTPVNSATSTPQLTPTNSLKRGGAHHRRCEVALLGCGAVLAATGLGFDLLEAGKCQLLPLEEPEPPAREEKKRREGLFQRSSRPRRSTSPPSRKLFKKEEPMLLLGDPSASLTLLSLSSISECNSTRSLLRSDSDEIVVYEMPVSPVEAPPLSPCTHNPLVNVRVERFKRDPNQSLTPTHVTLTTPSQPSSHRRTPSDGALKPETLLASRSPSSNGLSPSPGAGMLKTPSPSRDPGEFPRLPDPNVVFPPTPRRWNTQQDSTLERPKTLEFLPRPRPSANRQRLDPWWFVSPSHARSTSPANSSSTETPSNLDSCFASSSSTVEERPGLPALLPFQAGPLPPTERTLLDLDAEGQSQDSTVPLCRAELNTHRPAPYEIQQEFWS

[11] = biological target: Macrophage-stimulating protein receptor (Homo sapiens) (UniProt Q04912); experiment: Inhibition of human RON/MST1R using KKSRGDYMTMQIG as substrate at 1 uM in presence of 32P-ATP by Hotspot assay relative to control
Chain of Macrophage-stimulating protein receptor (Homo sapiens) (Q04912 25-304 limits assumed): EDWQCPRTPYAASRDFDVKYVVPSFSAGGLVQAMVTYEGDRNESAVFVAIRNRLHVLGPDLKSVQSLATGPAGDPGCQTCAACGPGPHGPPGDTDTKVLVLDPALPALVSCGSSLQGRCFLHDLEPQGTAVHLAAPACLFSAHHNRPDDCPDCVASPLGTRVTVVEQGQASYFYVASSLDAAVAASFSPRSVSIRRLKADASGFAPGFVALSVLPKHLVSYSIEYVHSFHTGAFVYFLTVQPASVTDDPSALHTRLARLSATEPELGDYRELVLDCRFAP
Chain of Macrophage-stimulating protein receptor (Homo sapiens) (Q04912 310-1400 limits assumed): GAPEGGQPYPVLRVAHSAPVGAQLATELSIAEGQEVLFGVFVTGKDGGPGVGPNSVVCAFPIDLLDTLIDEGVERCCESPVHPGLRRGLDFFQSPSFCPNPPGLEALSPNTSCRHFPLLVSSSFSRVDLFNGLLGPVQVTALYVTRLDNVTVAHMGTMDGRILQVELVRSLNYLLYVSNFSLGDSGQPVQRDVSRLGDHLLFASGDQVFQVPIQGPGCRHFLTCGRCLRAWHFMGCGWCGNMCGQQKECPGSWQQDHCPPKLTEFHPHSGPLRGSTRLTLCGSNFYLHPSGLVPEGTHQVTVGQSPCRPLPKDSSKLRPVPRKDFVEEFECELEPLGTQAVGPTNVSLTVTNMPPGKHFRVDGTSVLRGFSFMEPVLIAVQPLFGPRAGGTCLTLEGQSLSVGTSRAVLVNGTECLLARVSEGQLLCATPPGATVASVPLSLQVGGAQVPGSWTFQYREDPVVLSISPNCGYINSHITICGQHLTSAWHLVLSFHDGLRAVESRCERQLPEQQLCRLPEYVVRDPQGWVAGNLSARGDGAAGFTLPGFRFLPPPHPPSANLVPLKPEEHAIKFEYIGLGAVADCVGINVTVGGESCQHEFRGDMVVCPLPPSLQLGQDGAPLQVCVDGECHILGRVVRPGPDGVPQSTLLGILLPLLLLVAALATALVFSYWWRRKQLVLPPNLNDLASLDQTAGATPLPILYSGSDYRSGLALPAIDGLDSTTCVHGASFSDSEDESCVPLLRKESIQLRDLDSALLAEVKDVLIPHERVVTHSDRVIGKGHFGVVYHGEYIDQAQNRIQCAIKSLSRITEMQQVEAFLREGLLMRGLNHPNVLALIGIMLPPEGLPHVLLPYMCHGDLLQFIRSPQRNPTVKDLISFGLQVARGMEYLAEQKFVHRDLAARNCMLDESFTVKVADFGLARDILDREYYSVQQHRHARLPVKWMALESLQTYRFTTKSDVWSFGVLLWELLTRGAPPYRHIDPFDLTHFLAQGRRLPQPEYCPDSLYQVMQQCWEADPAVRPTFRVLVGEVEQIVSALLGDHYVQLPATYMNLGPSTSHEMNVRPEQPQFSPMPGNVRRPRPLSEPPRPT

[12] = biological target: LIM domain kinase 1 (Homo sapiens) (UniProt P53667); experiment: Inhibition of human LIMK1 using cofilin 1 as substrate at 1 uM in presence of 32P-ATP by Hotspot assay relative to control; values are per cent of control
Chain of LIM domain kinase 1 (Homo sapiens) (P53667 whole entry, looked up, the tested form may be a part): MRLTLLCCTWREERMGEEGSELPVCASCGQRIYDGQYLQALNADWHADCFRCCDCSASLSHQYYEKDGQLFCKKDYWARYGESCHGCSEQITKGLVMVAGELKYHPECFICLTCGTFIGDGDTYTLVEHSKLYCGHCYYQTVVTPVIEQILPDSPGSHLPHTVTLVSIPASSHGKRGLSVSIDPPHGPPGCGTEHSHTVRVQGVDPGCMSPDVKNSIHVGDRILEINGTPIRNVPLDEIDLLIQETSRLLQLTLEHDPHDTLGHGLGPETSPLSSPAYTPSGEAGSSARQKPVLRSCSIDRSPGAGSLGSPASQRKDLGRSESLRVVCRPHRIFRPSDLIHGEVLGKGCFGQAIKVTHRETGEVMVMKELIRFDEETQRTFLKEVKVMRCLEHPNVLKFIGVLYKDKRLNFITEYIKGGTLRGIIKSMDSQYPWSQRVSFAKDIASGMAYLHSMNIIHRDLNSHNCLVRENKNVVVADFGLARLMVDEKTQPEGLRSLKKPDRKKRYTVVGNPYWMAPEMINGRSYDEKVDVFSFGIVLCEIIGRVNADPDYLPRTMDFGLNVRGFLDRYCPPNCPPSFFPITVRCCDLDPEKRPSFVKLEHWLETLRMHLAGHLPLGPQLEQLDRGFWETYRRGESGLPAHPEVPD

[13] = biological target: Proto-oncogene tyrosine-protein kinase receptor Ret (Homo sapiens) (UniProt P07949); experiment: Inhibition of human RET using RRRRRRRRRRRVYSTDYYRLFNPS as substrate at 1 uM in presence of 32P-ATP by Hotspot assay relative to control

SMILES	residual activity [1] [%]	residual activity [2] [%]	residual activity [3] [%]	residual activity [4] [%]	residual activity [5] [%]	residual activity [6] [%]	residual activity [7] [%]	residual activity [8] [%]	residual activity [9] [%]	residual activity [10] [%]	inhibition [11] [%]	residual activity [12] [%]	inhibition [13] [%]
CNC(=O)c1ccc2c(c1)ncn2-c1ccc(CC(=O)OC(C)(C)C)cc1	82.3	102	73.5	98.5	99	91.6	96.8	97.1	95.9	90.7	97.8	72.9	92.2
Cc1cc(-c2cnc(N)c3c(-c4ccc5scnc5c4)csc23)n(C)n1	13.6	91	17	88.4	96.8	87.9	105	103	93.8	102	91.3	65.6	30
CC(C)S(=O)(=O)c1ccc2nccc(Nc3ccc4scnc4c3)c2c1	20.7	86.7	20	105	59	98.4	95.2	96	96.5	97	56.6	93	48.1
